What was measured:
pigweed = assay: Test B pre/postemergence pigweed; assay type: in vivo, Amaranthus retroflexus
Procedure, shortened: (§1)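 Response is a visual 0-to-10 score relative to untreated plants, where 0 means no effect and 10 means complete control, taken twelve to sixteen days after application. Treatments went onto soil at planting and onto foliage of 1- to 4-leaf plants, using a surfactant-containing non-phytotoxic solvent.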

sugar beet = assay: Test B pre/postemergence sugar beet; assay type: in vivo, Beta vulgaris
Procedure, shortened: as §1

crabgrass = assay: Test B pre/postemergence crabgrass; assay type: in vivo, Digitaria sanguinalis
Procedure, shortened: as §1

smallflower flatsedge = assay: Test B flood test smallflower flatsedge; assay type: in vivo, Cyperus difformis
Procedure, shortened: (§2)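 Each value is a visual injury score relative to controls, with 10 meaning complete control and 0 no effect. Evaluation took place twelve to sixteen days after the 2-leaf-stage plants were treated and kept in the greenhouse.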

rape = assay: Test B pre/postemergence rape; assay type: in vivo, Brassica napus
Procedure, shortened: as §1

rice = assay: Test B flood test rice; assay type: in vivo, Oryza sativa
Procedure, shortened: as §2

morningglory = assay: Test B pre/postemergence morningglory; assay type: in vivo, Ipomoea hederacea
Procedure, shortened: as §1

velvetleaf = assay: Test B pre/postemergence velvetleaf; assay type: in vivo, Abutilon theophrasti
Procedure, shortened: as §1

purple nutsedge = assay: Test B pre/postemergence purple nutsedge; assay type: in vivo, Cyperus rotundus
Procedure, shortened: as §1

corn = assay: Test B pre/postemergence corn; assay type: in vivo, Zea mays
Procedure, shortened: as §1

blackgrass = assay: Test B pre/postemergence blackgrass; assay type: in vivo, Alopecurus myosuroides
Procedure, shortened: as §1

cocklebur = assay: Test B pre/postemergence cocklebur; assay type: in vivo, Xanthium strumarium
Procedure, shortened: as §1

surinam grass = assay: Test B pre/postemergence surinam grass; assay type: in vivo, Brachiaria decumbens
Procedure, shortened: as §1

wheat = assay: Test B pre/postemergence wheat; assay type: in vivo, Triticum aestivum
Procedure, shortened: as §1

giant foxtail = assay: Test B pre/postemergence giant foxtail; assay type: in vivo, Setaria faberii
Procedure, shortened: as §1

duck salad = assay: Test B flood test duck salad; assay type: in vivo, Heteranthera limosa
Procedure, shortened: as §2

[1] = Postemergence, Rate 62 g/ha, scale 0 to 10, 0 is no effect, 10 is complete control
[2] = Postemergence, Rate 125 g/ha, scale of 0 to 10 where 0 is no effect and 10 is complete control
[3] = Postemergence, Rate 250 g/ha, scale of 0 to 10, 0 is no effect, 10 is complete control
[4] = Preemergence, Rate 62 g/ha, scale of 0 to 10 where 0 is no effect and 10 is complete control
[5] = Preemergence, Rate 125 g/ha, scale of 0 to 10 where 0 is no effect and 10 is complete control
[6] = Preemergence, Rate 250 g/ha, scale 0 to 10 (0 no effect, 10 complete control)
[7] = Preemergence, Rate 500 g/ha, scale of 0 to 10 where 0 is no effect and 10 is complete control
[8] = Postemergence, Rate 500 g/ha, scale of 0 to 10 where 0 is no effect and 10 is complete control
[9] = Rate 62 g/ha, flood test species, Pre-emergence, visual evaluation after twelve to sixteen days
[10] = Rate 125 g/ha, under heading Pre-emergence, flood test species, visual evaluation after twelve to sixteen days
[11] = Rate 250 g/ha, Pre-emergence (flood test species), scale 0 to 10, 0 is no effect, 10 is complete control
[12] = Rate 500 g/ha, Pre-emergence section of Table B, 0 to 10 scale (0 no effect, 10 complete control)

## CC(C)N(C(=O)n1oc(=O)n(CCC(=O)N(C)C)c1=O)c1ccc(F)cc1 [Compound 638]
pigweed; [1]
  Plant response rating, Redroot pigweed: 0
pigweed; [2]
  Plant response rating, Redroot pigweed: 0
pigweed; [3]
  Redroot pigweed plant response rating: 0
pigweed; [4]
  Redroot pigweed plant response rating: 7
pigweed; [5]
  Redroot pigweed plant response rating: 10
pigweed; [6]
  Plant response rating, Redroot pigweed: 10
pigweed; [7]
  Plant response rating, Redroot pigweed: 10
Sugar beet; [1]
  Plant response rating, Sugarbeets: 0
Sugar beet; [2]
  Plant response rating, Sugarbeets: 0
Sugar beet; [3]
  Sugarbeets plant response rating: 0
Sugar beet; [4]
  Sugarbeets plant response rating: 0
Sugar beet; [5]
  Sugarbeets plant response rating: 6
Sugar beet; [6]
  Plant response rating, Sugarbeets: 6
Sugar beet; [7]
  Plant response rating, Sugarbeets: 10
crabgrass; [1]
  Plant response rating, Crabgrass: 2
crabgrass; [2]
  Plant response rating, Crabgrass: 5
crabgrass; [3]
  Crabgrass plant response rating: 8
crabgrass; [8]
  Plant response rating, Crabgrass: 9
crabgrass; [4]
  Crabgrass plant response rating: 9
crabgrass; [5]
  Crabgrass plant response rating: 9
crabgrass; [6]
  Plant response rating, Crabgrass: 9
crabgrass; [7]
  Plant response rating, Crabgrass: 10
Smallflower flatsedge; [9]
  Plant response rating, S. Flatsedge (0 to 10 scale, 0 is no effect, 10 is complete control): 0
Smallflower flatsedge; [10]
  S. Flatsedge plant response rating (0 to 10 scale, 0 is no effect, 10 is complete control): 0
Smallflower flatsedge; [11]
  S. Flatsedge plant response rating: 0
Smallflower flatsedge; [12]
  S. Flatsedge plant response rating: 0
rape; [1]
  Plant response rating, Rape: 0
rape; [2]
  Plant response rating, Rape: 0
rape; [3]
  Rape plant response rating: 0
rape; [8]
  Plant response rating, Rape: 0
rape; [4]
  Rape plant response rating: 0
rape; [5]
  Rape plant response rating: 5
rape; [6]
  Plant response rating, Rape: 8
rape; [7]
  Plant response rating, Rape: 10
rice; [9]
  Plant response rating, Rice (0 to 10 scale, 0 is no effect, 10 is complete control): 0
rice; [10]
  Rice plant response rating (0 to 10 scale, 0 is no effect, 10 is complete control): 0
rice; [11]
  Rice plant response rating: 0
rice; [12]
  Rice plant response rating: 0
morningglory; [1]
  Plant response rating, Morningglory: 0
morningglory; [2]
  Plant response rating, Morningglory: 2
morningglory; [3]
  Morningglory plant response rating: 3
morningglory; [8]
  Plant response rating, Morningglory: 7
morningglory; [4]
  Morningglory plant response rating: 0
morningglory; [5]
  Morningglory plant response rating: 0
morningglory; [6]
  Plant response rating, Morningglory: 2
morningglory; [7]
  Plant response rating, Morningglory: 7
velvetleaf; [1]
  Plant response rating, Velvetleaf: 0
velvetleaf; [2]
  Plant response rating, Velvetleaf: 2
velvetleaf; [3]
  Velvetleaf plant response rating: 4
velvetleaf; [4]
  Velvetleaf plant response rating: 3
velvetleaf; [5]
  Velvetleaf plant response rating: 5
velvetleaf; [6]
  Plant response rating, Velvetleaf: 5
velvetleaf; [7]
  Plant response rating, Velvetleaf: 10
Purple nutsedge; [1]
  Plant response rating, Nutsedge: 0
Purple nutsedge; [2]
  Plant response rating, Nutsedge: 5
Purple nutsedge; [8]
  Plant response rating, Nutsedge: 7
Purple nutsedge; [4]
  Nutsedge plant response rating: 0
Purple nutsedge; [5]
  Nutsedge plant response rating: 5
Purple nutsedge; [6]
  Plant response rating, Nutsedge: 5
Purple nutsedge; [7]
  Plant response rating, Nutsedge: 8
corn; [1]
  Plant response rating, Corn: 0
corn; [2]
  Plant response rating, Corn: 2
corn; [3]
  Corn plant response rating: 2
corn; [8]
  Plant response rating, Corn: 3
corn; [4]
  Corn plant response rating: 0
corn; [5]
  Corn plant response rating: 8
corn; [7]
  Plant response rating, Corn: 8
blackgrass; [1]
  Plant response rating, Blackgrass: 0
blackgrass; [2]
  Plant response rating, Blackgrass: 4
blackgrass; [3]
  Blackgrass plant response rating: 6
blackgrass; [8]
  Plant response rating, Blackgrass: 7
blackgrass; [4]
  Blackgrass plant response rating: 4
blackgrass; [5]
  Blackgrass plant response rating: 5
blackgrass; [6]
  Plant response rating, Blackgrass: 9
blackgrass; [7]
  Plant response rating, Blackgrass: 9
cocklebur; [1]
  Plant response rating, Cocklebur: 0
cocklebur; [2]
  Plant response rating, Cocklebur: 0
cocklebur; [3]
  Cocklebur plant response rating: 2
cocklebur; [8]
  Plant response rating, Cocklebur: 4
cocklebur; [4]
  Cocklebur plant response rating: 0
cocklebur; [5]
  Cocklebur plant response rating: 0
cocklebur; [6]
  Plant response rating, Cocklebur: 4
cocklebur; [7]
  Plant response rating, Cocklebur: 9
Surinam grass; [1]
  Plant response rating, B. signalgrass: 0
Surinam grass; [2]
  Plant response rating, B. signalgrass: 4
Surinam grass; [3]
  B. signalgrass plant response rating: 6
Surinam grass; [8]
  Plant response rating, B. signalgrass: 6
Surinam grass; [4]
  B. signalgrass plant response rating: 4
Surinam grass; [5]
  B. signalgrass plant response rating: 7
Surinam grass; [6]
  Plant response rating, B. signalgrass: 8
Surinam grass; [7]
  Plant response rating, B. signalgrass: 8
wheat; [1]
  Plant response rating, Wheat: 0
wheat; [2]
  Plant response rating, Wheat: 0
wheat; [3]
  Wheat plant response rating: 3
wheat; [4]
  Wheat plant response rating: 0
wheat; [5]
  Wheat plant response rating: 0
wheat; [6]
  Plant response rating, Wheat: 3
wheat; [7]
  Plant response rating, Wheat: 7
Giant foxtail; [1]
  Plant response rating, Giant foxtail: 5
Giant foxtail; [2]
  Plant response rating, Giant foxtail: 6
Giant foxtail; [3]
  Giant foxtail plant response rating: 8
Giant foxtail; [8]
  Plant response rating, Giant foxtail: 8
Giant foxtail; [4]
  Giant foxtail plant response rating: 10
Giant foxtail; [5]
  Giant foxtail plant response rating: 10
Giant foxtail; [6]
  Plant response rating, Giant foxtail: 10
Giant foxtail; [7]
  Plant response rating, Giant foxtail: 10
Duck salad; [9]
  Plant response rating, Ducksalad (0 to 10 scale, 0 is no effect, 10 is complete control): 0
Duck salad; [10]
  Ducksalad plant response rating (0 to 10 scale, 0 is no effect, 10 is complete control): 0
Duck salad; [11]
  Ducksalad plant response rating: 0
Duck salad; [12]
  Ducksalad plant response rating: 0

— US6737383B1, “Herbicidal oxadiazolidines” (priority 1999, dated 2004)
